Several values for one entry are separate records, joined by “and”; a condition that tells them apart may be missing. Equal entries are not always repeated. Toxic doses and inconclusive results are not listed. Rule as the data show it: active = T/C of 150% or more; inactive = T/C below 125%.
System: L1210 leukemia ip in BDF1 mice, survival T/C
Test: NCI In Vivo Anticancer Drug Screen. Data for tumor model L1210 Leukemia (intraperitoneal) in B6D2F1 (BDF1) mice
Conditions: endpoint: mean survival time, higher = longer survival
Method in brief: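 Mice bearing the transplanted tumor received compound or vehicle. Survival of the treated group was divided by that of the vehicle-treated control group to give the ratio.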

[1] = dose: 100.0 mg/kg/injection, schedule: Q04DX003 (ip), vehicle: Klucel (hydroxypropylcellulose) (HPC)
[2] = dose: 200.0 mg/kg/injection, schedule: Q04DX003 (ip), vehicle: Klucel (hydroxypropylcellulose) (HPC)
[3] = dose: 400.0 mg/kg/injection, schedule: Q04DX003 (ip), vehicle: Klucel (hydroxypropylcellulose) (HPC)
[4] = dose: 100.0 mg/kg/injection, schedule: Q04DX002 (ip), vehicle: Klucel (hydroxypropylcellulose) (HPC)
[5] = dose: 200.0 mg/kg/injection, schedule: Q04DX002 (ip), vehicle: Klucel (hydroxypropylcellulose) (HPC)
[6] = dose: 400.0 mg/kg/injection, schedule: Q04DX002 (ip), vehicle: Klucel (hydroxypropylcellulose) (HPC)
[7] = dose: 100.0 mg/kg/injection, schedule: Q01DX009 (ip), vehicle: Klucel (hydroxypropylcellulose) (HPC)
[8] = dose: 200.0 mg/kg/injection, schedule: Q01DX009 (ip), vehicle: Klucel (hydroxypropylcellulose) (HPC)
[9] = dose: 100.0 mg/kg/injection, schedule: Q01DX001 (ip), vehicle: carboxymethylcellulose (CMC)
[10] = dose: 200.0 mg/kg/injection, schedule: Q01DX001 (ip), vehicle: carboxymethylcellulose (CMC)
[11] = dose: 400.0 mg/kg/injection, schedule: Q01DX001 (ip), vehicle: carboxymethylcellulose (CMC)
[12] = dose: 50.0 mg/kg/injection, schedule: Q01DX009 (ip), vehicle: saline
[13] = dose: 100.0 mg/kg/injection, schedule: Q04DX003 (ip), vehicle: saline with Tween-80
[14] = dose: 200.0 mg/kg/injection, schedule: Q04DX003 (ip), vehicle: saline with Tween-80
[15] = dose: 400.0 mg/kg/injection, schedule: Q04DX003 (ip), vehicle: saline with Tween-80
[16] = dose: 50.0 mg/kg/injection, schedule: Q01DX009 (ip), vehicle: saline with Tween-80
[17] = dose: 100.0 mg/kg/injection, schedule: Q01DX009 (ip), vehicle: saline with Tween-80
[18] = dose: 200.0 mg/kg/injection, schedule: Q01DX009 (ip), vehicle: saline with Tween-80
[19] = dose: 50.0 mg/kg/injection, schedule: Q04DX003 (ip), vehicle: Klucel (hydroxypropylcellulose) (HPC)

Measured: T/C

Cc1c[n+]2c3ccccc3c3ccccc3c2s1
inactive: dose: 5.0 mg/kg/injection, schedule: Q01DX009 (ip), vehicle: Klucel (hydroxypropylcellulose) (HPC) 114 % of control | dose: 10.0 mg/kg/injection, schedule: Q01DX001 (ip), vehicle: saline 105 % of control | dose: 10.0 mg/kg/injection, schedule: Q01DX009 (ip), vehicle: Klucel (hydroxypropylcellulose) (HPC) 118 % of control | dose: 10.0 mg/kg/injection, schedule: Q04DX003 (ip), vehicle: Klucel (hydroxypropylcellulose) (HPC) 94 % of control | dose: 20.0 mg/kg/injection, schedule: Q01DX001 (ip), vehicle: saline 100 % of control | dose: 20.0 mg/kg/injection, schedule: Q01DX009 (ip), vehicle: Klucel (hydroxypropylcellulose) (HPC) 123 % of control | dose: 20.0 mg/kg/injection, schedule: Q04DX003 (ip), vehicle: Klucel (hydroxypropylcellulose) (HPC) 97 % of control | dose: 40.0 mg/kg/injection, schedule: Q01DX001 (ip), vehicle: saline 98 % of control

C[N+](C)(C)CCCCCCCCCC[N+](C)(C)CCCCCCCCCC[N+](C)(C)CCCCCCCCCC[N+](C)(C)C
inactive: dose: 25.0 micrograms/kg/injection, schedule: Q04DX003 (ip), vehicle: Klucel (hydroxypropylcellulose) (HPC) 96 % of control | dose: 50.0 micrograms/kg/injection, schedule: Q04DX003 (ip), vehicle: Klucel (hydroxypropylcellulose) (HPC) 97 % of control | dose: 100.0 micrograms/kg/injection, schedule: Q04DX003 (ip), vehicle: Klucel (hydroxypropylcellulose) (HPC) 97 % of control

COC(=O)c1oc(C(=O)OC)c(OCc2ccccc2)c1OCc1ccccc1
inactive: [1] 103 % of control | [2] 106 % of control | [3] 95 % of control

Cc1nc(N)[nH]c(=O)c1CCC(C)C
inactive: [4] 93 % of control | [5] 100 % of control | [6] 96 % of control

O=[N+]([O-])c1ccc(C=Nc2cccc(C(F)(F)F)c2)cc1
inactive: [7] 90 % of control | [1] 90 % of control | [8] 98 % of control | [2] 95 % of control | [3] 93 % of control

O=c1[nH]nc(S(=O)(=O)N2CCOCC2)c(=O)[nH]1
inactive: [9] 98 % of control | [10] 96 % of control | [11] 96 % of control

COc1ccc(Nc2cc(=S)nc(N)[nH]2)cc1
inactive: dose: 100.0 mg/kg/injection, schedule: Q01DX Z (ip), vehicle: methylcellulose (MC) 100 % of control | dose: 200.0 mg/kg/injection, schedule: Q01DX Z (ip), vehicle: methylcellulose (MC) 115 % of control

Cc1cc(N)c(C)c(CC#N)c1
inactive: [12] 97 % of control | dose: 100.0 mg/kg/injection, schedule: Q01DX009 (ip), vehicle: saline 118 % of control | dose: 200.0 mg/kg/injection, schedule: Q01DX009 (ip), vehicle: saline 90 % of control

CCC(CO)NC(=O)/C=C/c1ccc(Cl)cc1 (configuration not stated)
inactive: dose: 100.0 mg/kg/injection, schedule: Q01DX001 (ip), vehicle: saline with Tween-80 101 % of control | [13] 110 % of control | dose: 200.0 mg/kg/injection, schedule: Q01DX001 (ip), vehicle: saline with Tween-80 100 % of control | [14] 108 % of control | dose: 400.0 mg/kg/injection, schedule: Q01DX001 (ip), vehicle: saline with Tween-80 92 % of control | [15] 98 % of control

CCCCCCCCCCCCCCCCCC(=O)c1ccccc1
inactive: [7] 105 % of control | [8] 105 % of control | dose: 400.0 mg/kg/injection, schedule: Q01DX009 (ip), vehicle: Klucel (hydroxypropylcellulose) (HPC) 100 % of control

O=C(c1ccccc1)C1NC1c1ccccc1 (configuration not stated)
inactive: dose: 100.0 mg/kg/injection, schedule: Q01DX001 (ip), vehicle: Klucel (hydroxypropylcellulose) (HPC) 97 % of control | dose: 200.0 mg/kg/injection, schedule: Q01DX001 (ip), vehicle: Klucel (hydroxypropylcellulose) (HPC) 92 % of control | dose: 400.0 mg/kg/injection, schedule: Q01DX001 (ip), vehicle: Klucel (hydroxypropylcellulose) (HPC) 95 % of control

CC(C)(C)CC(Cl)Cl
inactive: [7] 100 % of control | [1] 96 % of control | [8] 101 % of control | [2] 98 % of control | [3] 94 % of control

C=CC(C)C/C(CC)=N\NC(N)=O (configuration not stated)
inactive: dose: 75.0 mg/kg/injection, schedule: Q01DX001 (ip), vehicle: other 98 % of control | dose: 150.0 mg/kg/injection, schedule: Q01DX001 (ip), vehicle: other 103 % of control

O=C(COc1ccc(Cl)c(Cl)c1)N(Cc1ccccc1)Cc1ccc[n+](Cc2ccc(Cl)cc2S(=O)(=O)F)c1
inactive: [4] 95 % of control | [5] 95 % of control | [6] 104 % of control

CN(C)CC(=O)Nc1ccc(NC(=O)c2ccc(C(=O)Nc3ccc(NC(=O)CN(C)C)cc3)cc2)cc1
inactive: dose: 15.0 mg/kg/injection, schedule: Q01DX Z (ip), vehicle: methylcellulose (MC) 104 % of control | dose: 30.0 mg/kg/injection, schedule: Q01DX Z (ip), vehicle: methylcellulose (MC) 106 % of control | dose: 60.0 mg/kg/injection, schedule: Q01DX Z (ip), vehicle: methylcellulose (MC) 93 % of control | dose: 120.0 mg/kg/injection, schedule: Q01DX Z (ip), vehicle: methylcellulose (MC) 95 % of control

O=C(/C(=C\c1ccccc1)CO)c1ccccc1
inactive: dose: 12.5 mg/kg/injection, schedule: Q01DX009 (ip), vehicle: saline with Tween-80 89 % of control | dose: 25.0 mg/kg/injection, schedule: Q01DX009 (ip), vehicle: saline with Tween-80 89 % of control | [16] 87 % of control | dose: 62.0 mg/kg/injection, schedule: Q01DX009 (ip), vehicle: saline with Tween-80 106 % of control

CCOC(=O)c1cnc(=O)[nH]c1Nc1ccccc1Cl
inactive: [1] 94 % of control | [2] 101 % of control | [3] 90 % of control

COc1cc2c(cc1OC)-c1oncc1CCC2
inactive: [9] 95 % of control | [10] 106 % of control | [11] 88 % of control

Cc1ccc(S(=O)(=O)CO)cc1
inactive: [16] 108 % of control | [17] 89 % of control | [18] 97 % of control

COC(=O)C(Br)CCBr (configuration not stated)
inactive: [17] 94 % of control | [13] 94 % of control | [18] 95 % of control | [14] 101 % of control | dose: 400.0 mg/kg/injection, schedule: Q01DX009 (ip), vehicle: saline with Tween-80 100 % of control | [15] 105 % of control

CCCCC(CC)CCC(C)O (configuration not stated)
inactive: [16] 96 % of control | [17] 94 % of control | [13] 108 % of control | [14] 95 % of control

CCOC(OCC)c1nc(N)c2cnn(C)c2n1
inactive: dose: 6.25 mg/kg/injection, schedule: Q01DX009 (ip), vehicle: saline 89 % of control | dose: 12.5 mg/kg/injection, schedule: Q01DX009 (ip), vehicle: saline 97 % of control | dose: 25.0 mg/kg/injection, schedule: Q01DX009 (ip), vehicle: saline 106 % of control and 110 % of control | [12] 94 % of control | dose: 100.0 mg/kg/injection, schedule: Q04DX002 (ip), vehicle: saline 112 % of control

COc1ccc(CCC(=O)c2ccccc2)cc1
inactive: [19] 98 % of control | [1] 104 % of control | [2] 107 % of control

Cc1ccc(C)c(OC2CCCCC2=O)c1 (configuration not stated)
inactive: dose: 100.0 mg/kg/injection, schedule: Q01DX001 (ip), vehicle: saline 100 % of control | dose: 200.0 mg/kg/injection, schedule: Q01DX001 (ip), vehicle: saline 100 % of control | dose: 400.0 mg/kg/injection, schedule: Q01DX001 (ip), vehicle: saline 91 % of control

O=C(O)Cc1ccc(Cl)cc1Cl
inactive: [19] 93 % of control | [1] 98 % of control | [2] 98 % of control

Nc1ccc(N)cc1 (tested in a mixture with another compound)
inactive: dose: 50.0 mg/kg/injection, schedule: Q01DX009 (ip), vehicle: DMSO 103 % of control | dose: 100.0 mg/kg/injection, schedule: Q01DX009 (ip), vehicle: DMSO 91 % of control | dose: 100.0 mg/kg/injection, schedule: Q04DX003 (ip), vehicle: DMSO 91 % of control | dose: 200.0 mg/kg/injection, schedule: Q04DX003 (ip), vehicle: DMSO 94 % of control

— PubChem BioAssay AID248 (DTP/NCI, 2004)
